PubChem BioAssay AID1845207 (Molecular Pharmacology Branch, DTP, NCI, 2023)

Test system: NCI-H1876 tumor spheroid viability
Test: Anticancer human tumor NCI-H1876 cell line growth inhibition;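 also: spheroids exposed to compounds for seven days before the viability read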;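 as to viability, T/C: percent of DMSO vehicle control viability so 100% = vehicle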
Details: spheroids with HUVEC and MSC; for IC50: curve of first compound; for viability, T/C: stronger effect = lower value
Source text: Multicellular complex tumor spheroid response to DNA repair inhibitors in combination with DNA-damaging drugs
This study explores the anticancer activities of DNA-damaging drugs and inhibitors of DNA damage repair, both as single agents and in combinations. Complex tumor spheroids comprised of malignant cells, endothelial cells and mesenchymal stem cells served as an in vitro model for human solid tumors. This model system incorporates physiologically relevant features and patient-derived or established malignant cell lines with clinically relevant genetic alterations from many tumor types. Twenty-six patient-derived or established malignant cell lines were evaluated representing sarcoma, melanoma, small cell lung cancer (SCLC), non-small cell lung cancer (NSCLC), as well as bladder, ovarian and pancreatic cancers. The concentration ranges selected for each drug and investigational agent were based upon clinically achievable concentrations if the clinical Cmax of the agent was known.
Compounds. The drugs and compounds olaparib (NSC753686), talazoparib (NSC767125), berzosertib (NSC777718), elimusertib (NSC800525), nedisertib (NSC802822), VX-984 (NSC792969), AZD-1390 (NSC803789), temozolomide (NSC362856), topotecan (NSC609699), trabectedin (NSC813783), staurosporine (NSC755774), and gemcitabine (NSC613327) were obtained from the National Cancer Institute (NCI) Developmental Therapeutics Program Chemical Repository. The FDA-approved anticancer drug set is available from the Developmental Therapeutics Program at https://dtp.cancer.gov/organization/dscb/obtaining/available_plates.htm. […] The stock solutions were prepared in dimethyl sulfoxide (DMSO, Sigma-Aldrich, St. Louis, MO, cat. D2650) at 400-fold the tested concentration and stored at -70 degrees C. Prior to their use, the stock solutions were diluted in fresh medium and the final DMSO concentration in the assay was 0.25% (v/v). All drugs and investigational agents were tested over a range starting from a high concentration at or near the clinical Cmax and decreasing in half-log increments. If the clinical Cmax for an agent had not been determined, the highest concentration tested was 10 microM.
Cell Lines. The patient-derived cancer cell (PDC) lines: 156681-154-R-J1-PDC, 283228-195-R-J1-PDC, 287954-098-R-J1-PDC, 292921-168-R-J2-PDC, 349418-098-R-PDC, 425362-245-T-J1-PDC, 556581-035-R-J1-PDC, and BL0293-F563-PDC were received from the NCI Patient-Derived Models Repository (PDMR, https://pdmr.cancer.gov). The established cell lines HS-SY-2 (RRID:CVCL_8719), MPNST, and SYO-1 (RRID:CVCL_7146) were obtained from the Sloan Kettering Institute. The alveolar soft parts sarcoma cell line ASPS-1 (RRID:CVCL_S738) was established at the NCI and grown from internal seed stocks. The following established cell lines were purchased from the American Type Culture Collection (ATCC, Manassas, VA): G-401 (ATCC, cat. CRL-1441, RRID:CVCL_0270), SW982 (ATCC, cat. HTB-93, RRID:CVCL_1734), VA-ES-BJ (ATCC, cat. CRL-2138, RRID:CVCL_1785), NCI-H719 (ATCC, cat. CRL-5837, RRID:CVCL_1582), NCI-H196 (ATCC, cat. CRL-5823, RRID:CVCL_1509), NCI-H841 (ATCC, cat. CRL-5845, RRID:CVCL_1595), NCI-H1618 (ATCC, cat. CRL-5879, RRID:CVCL_1480), NCI-H1876 (ATCC, cat. CRL-5902, RRID:CVCL_1503), DMS 114 (ATCC, cat. CRL-2066; RRID:CVCL_1174), NCI-H211 (ATCC, cat. CRL-5824; RRID:CVCL_1529), and SW 1271 (ATCC, cat. CRL-2177, RRID:CVCL_1716). The small cell lung cancer cell line COR-L88 was purchased from Sigma-Aldrich (cat. 92031917-1VL, RRID:CVCL_1141). The non-small cell lung cancer cell lines NCI-H226 (RRID:CVCL_1544) and NCI-H322M (RRID:CVCL_1557) were established at the NCI and grown from internal seed stocks. Pooled donor human umbilical vein endothelial cells (HUVEC, Lonza, cat. CC-2519) and human mesenchymal stem cells (hMSC, Lonza, cat. PT-2501) were purchased from Lonza (Walkersville, MD).
Cell Culture. All cells were maintained in an incubator at 37 degrees C and 5% CO2 with 95% humidity. […]

`[2H]c1nc(C)nc([2H])c1-c1cc(NC[C@@H](C)c2cccc3c(C(=O)NC)ccnc23)ncn1` + Cn1nnc2c(C(N)=O)ncn2c1=O showed an IC50 (second compound 1 µM) of over 10 µM, an IC50 (second compound 3.16 µM) of over 10 µM and an IC50 (second compound 10 µM) of over 10 µM. It also gave an IC50 (second compound 31.6 µM) of over 10 µM, an IC50 (second compound 100 µM) of over 10 µM and a viability, T/C (second compound 1 µM, first compound 0.0316 µM) of 98.1%. For the same compound, the viability, T/C (second compound 1 µM, first compound 0.1 µM) was 98.7%, the viability, T/C (second compound 1 µM, first compound 0.316 µM) was 101% and the viability, T/C (second compound 1 µM, first compound 1 µM) was 101%. For the same compound, the viability, T/C (second compound 1 µM, first compound 3.16 µM) was 86.8%, the viability, T/C (second compound 1 µM, first compound 10 µM) was 67.6% and the viability, T/C (second compound 3.16 µM, first compound 0.0316 µM) was 106%. It also gave a viability, T/C (second compound 3.16 µM, first compound 0.1 µM) of 104%, a viability, T/C (second compound 3.16 µM, first compound 0.316 µM) of 95.4% and a viability, T/C (second compound 3.16 µM, first compound 1 µM) of 106%. For the same compound, the viability, T/C (second compound 3.16 µM, first compound 3.16 µM) was 88.8%, the viability, T/C (second compound 3.16 µM, first compound 10 µM) was 77.2% and the viability, T/C (second compound 10 µM, first compound 0.0316 µM) was 104%. The viability, T/C (second compound 10 µM, first compound 0.1 µM) was 103%, the viability, T/C (second compound 10 µM, first compound 0.316 µM) was 106% and the viability, T/C (second compound 10 µM, first compound 1 µM) was 101%. For the same compound, the viability, T/C (second compound 10 µM, first compound 3.16 µM) was 89.3%, the viability, T/C (second compound 10 µM, first compound 10 µM) was 71.5% and the viability, T/C (second compound 31.6 µM, first compound 0.0316 µM) was 91.8%. It also gave a viability, T/C (second compound 31.6 µM, first compound 0.1 µM) of 55.8%, a viability, T/C (second compound 31.6 µM, first compound 0.316 µM) of 91.7% and a viability, T/C (second compound 31.6 µM, first compound 1 µM) of 95.5%. For the same compound, the viability, T/C (second compound 31.6 µM, first compound 3.16 µM) was 89.2%, the viability, T/C (second compound 31.6 µM, first compound 10 µM) was 50.1% and the viability, T/C (second compound 100 µM, first compound 0.0316 µM) was 69.5%. It also gave a viability, T/C (second compound 100 µM, first compound 0.1 µM) of 76.9%, a viability, T/C (second compound 100 µM, first compound 0.316 µM) of 70.4% and a viability, T/C (second compound 100 µM, first compound 1 µM) of 66.2%. The viability, T/C (second compound 100 µM, first compound 3.16 µM) was 65.1% and the viability, T/C (second compound 100 µM, first compound 10 µM) was 58.3%.
